Like-named read-outs stand apart in the source and are kept apart here.
Assays:
ulcer = assay: Anti-ulcer test (restraint and water immersion ulcer in rats, i.p.); assay type: in vivo, Male Wistar rats; details: Rattus norvegicus, ip, read-out: % Inhibition of Ulcer
Outline: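 Compound given intraperitoneally in saline to 24 h-fasted male Wistar rats about 150 g, followed after one hour by 6 h restraint with water immersion at 21 °C. Gastric lesions graded 0, 0.5, 1, 2 or 3 on microscopic inspection and converted to percent ulcer inhibition.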

edema = assay: Anti-edema test (carrageenan hindfoot edema in rats, p.o.); assay type: in vivo, Male Wistar rats; details: Rattus norvegicus, po; 100 mg/kg p.o. (after 3 hours)
Method: Tables 13, 14 and 15 show the effect of these compounds to inhibit the occurrence of ulcer and edema. The anti-ulcer and anti-edema activity of the compounds was evaluated in efficacy tests described below. The first two symbols that appear in each of the compound names in Tables 13 and 15 represent the compounds synthesized in the methods (1) through (29); for example, IIIa-1 of a compound IIIa-1-1 represent the compound (IIIa-1).
Male Wistar rats weighing about 150 g on average were starved overnight prior to the test. They were than orally administered 100 mg/kg of the test compound. One hour later, the pad of a hindfoot of the animal was injected with 1 mg of carrageenan. The volume of the foot was measured both before the injection of carrageenan and three hours after the injection. The percent edema inhibition of the test compound was calculated from the ratio of the increase in the volume of the affected foot of the test animals to the increase in the volume of the affected foot of the controls.

| Structure (SMILES) | inhibition in vivo at 50 mg/kg (ulcer; 50 mg/kg i.p.) | also measured |
| --- | --- | --- |
| CCNC1CC(=O)OC1C(O)C(=O)NC(CC(C)C)C1Cc2cccc(O)c2C(=O)O1 (stereo not shown) [IIIa-18-1] | 100% | inhibition in vivo at 100 mg/kg (edema): 38% |
| CCCNC1CC(=O)OC1C(O)C(=O)NC(CC(C)C)C1Cc2cccc(O)c2C(=O)O1 (stereo not shown) [IIIa-18-2] | 100% | inhibition in vivo at 100 mg/kg (edema): 38% |
| CCCCOc1cccc2c1C(=O)OC(C(CC(C)C)NC(=O)C(OCCCC)C(O)C(CC(N)=O)NC)C2 (stereo not shown) [VII-25-3] |  | inhibition in vivo at 25 mg/kg (ulcer; 25 mg/kg i.p.): 56% |
| CNC(CC(N)=O)C(O)C(OC)C(=O)NC(CC(C)C)C1Cc2cccc(O)c2C(=O)O1 (stereo not shown) [VII-26-1] |  | inhibition in vivo at 25 mg/kg (ulcer; 25 mg/kg i.p.): 89% |
| CNC(CC(N)=O)C(O)C(OC)C(=O)NC(CC(C)C)C1Cc2cccc(OC(C)=O)c2C(=O)O1 (stereo not shown) [VII-27-1] |  | inhibition in vivo at 25 mg/kg (ulcer; 25 mg/kg i.p.): 66% |
| CC(=O)NC(CC(N)=O)C(O)C(O)C(=O)NC(CC(C)C)C1Cc2cccc(O)c2C(=O)O1 (stereo not shown) [VII-28-1] |  | inhibition in vivo at 25 mg/kg (ulcer; 25 mg/kg i.p.): 78% |
| CC(C)CC(NC(=O)C(O)C(O)C(CC(N)=O)NC(=O)C(C)C)C1Cc2cccc(O)c2C(=O)O1 (stereo not shown) [VII-28-2] |  | inhibition in vivo at 25 mg/kg (ulcer): 78% |
| CCCCCCCC(=O)NC(CC(N)=O)C(O)C(O)C(=O)NC(CC(C)C)C1Cc2cccc(O)c2C(=O)O1 (stereo not shown) [VII-28-3] |  | inhibition in vivo at 25 mg/kg (ulcer; 25 mg/kg i.p.): 66% |
| CCCCCCCCCCCCCCCCCC(=O)NC(CC(=O)NCC)C(O)C(O)C(=O)NC(CC(C)C)C1Cc2cccc(O)c2C(=O)O1 (stereo not shown) [VII-28-4] |  | inhibition in vivo at 25 mg/kg (ulcer; 25 mg/kg i.p.): 66% |
| CCC(=O)OC(C(=O)NC(CC(C)C)C1Cc2cccc(O)c2C(=O)O1)C(O)C(CC(=O)NC)NC(C)=O (stereo not shown) [VII-29-1] |  | inhibition in vivo at 25 mg/kg (ulcer): 66% |
| CC(=O)NC(CC(N)=O)C(O)C(O)C(=O)NC(CC(C)C)C1Cc2cccc(OC(C)=O)c2C(=O)O1 (stereo not shown) [VII-31-1] |  | inhibition in vivo at 25 mg/kg (ulcer; 25 mg/kg i.p.): 89% |
| CCCCOc1cccc2c1C(=O)OC(C(CC(C)C)NC(=O)C(O)C(O)C(CC(=O)NCC)NC(C)=O)C2 (stereo not shown) [VII-32-1] |  | inhibition in vivo at 25 mg/kg (ulcer; 25 mg/kg i.p.): 66% |
| CCC(=O)OC(C(=O)NC(CC(C)C)C1Cc2cccc(OC)c2C(=O)O1)C(O)C(CC(N)=O)NC(C)=O (stereo not shown) [VII-33-1] |  | inhibition in vivo at 25 mg/kg (ulcer; 25 mg/kg i.p.): 66% |
| CCCCOc1cccc2c1C(=O)OC(C(CC(C)C)NC(=O)C(OC)C(O)C(CC(N)=O)NC(C)=O)C2 (stereo not shown) [VII-34-1] |  | inhibition in vivo at 25 mg/kg (ulcer; 25 mg/kg i.p.): 66% |
| CCNC(=O)CC(NC(C)=O)C(O)C(OC)C(=O)NC(CC(C)C)C1Cc2cccc(O)c2C(=O)O1 (stereo not shown) [VII-35-1] |  | inhibition in vivo at 25 mg/kg (ulcer; 25 mg/kg i.p.): 66% |
| COC(C(=O)NC(CC(C)C)C1Cc2cccc(OC(=O)C(C)C)c2C(=O)O1)C(O)C(CC(N)=O)NC(C)=O (stereo not shown) [VII-36-1] |  | inhibition in vivo at 25 mg/kg (ulcer; 25 mg/kg i.p.): 66% |
| CNC(=O)C=CC(O)C(O)C(=O)NC(CC(C)C)C1Cc2cccc(O)c2C(=O)O1 (stereo not shown) [VIII-1-1] | 56% |  |
| CCCCCNC(=O)C=CC(O)C(O)C(=O)NC(CC(C)C)C1Cc2cccc(O)c2C(=O)O1 (stereo not shown) [VIII-1-2] | 56% |  |
| CCCCCCCCCCCCCCCCCCNC(=O)C=CC(O)C(O)C(=O)NC(CC(C)C)C1Cc2cccc(O)c2C(=O)O1 (stereo not shown) [VIII-1-3] | 44% |  |
| CC(C)CC(NC(=O)C(O)C(O)C=CC(=O)NCc1cccc(Cl)c1)C1Cc2cccc(O)c2C(=O)O1 (stereo not shown) [VIII-1-4] | 44% |  |
| CC(C)CC(NC(=O)C(O)C(O)C=CC(=O)NCC1CCCCC1)C1Cc2cccc(O)c2C(=O)O1 (stereo not shown) [VIII-1-5] | 44% |  |

| Structure (SMILES) | inhibition in vivo at 50 mg/kg (ulcer; 50 mg/kg i.p.) | also measured |
| --- | --- | --- |
| CCCC=Cc1ccc(CN=C(NC(CC(C)C)C2Cc3cccc(O)c3C(=O)O2)C(O)C(O)C(N)CC(=O)O)cc1 (stereo not shown) [Vb-1-40] | 89% |  |
| CC(C)CC(NC(=NC(C)C)C(O)C(O)C(N)CC(=O)O)C1Cc2cccc(O)c2C(=O)O1 (stereo not shown) [Vb-1-41] |  | inhibition in vivo at 50 mg/kg (ulcer): 89% |
| Cc1ccc(N=C(NC(CC(C)C)C2Cc3cccc(O)c3C(=O)O2)C(O)C(O)C(N)CC(=O)O)cc1 (stereo not shown) [Vb-1-42] | 83% |  |
| CCN1CCCC(N=C(NC(CC(C)C)C2Cc3cccc(O)c3C(=O)O2)C(O)C(O)C(N)CC(=O)O)C1 (stereo not shown) [Vb-1-43] | 83% |  |
| CC(C)CC(NC(=NCCN1CCOCC1)C(O)C(O)C(N)CC(=O)O)C1Cc2cccc(O)c2C(=O)O1 (stereo not shown) [Vb-1-44] | 94% |  |
| CC(C)CC(NC(=NCCN1CCCCC1)C(O)C(O)C(N)CC(=O)O)C1Cc2cccc(O)c2C(=O)O1 (stereo not shown) [Vb-1-45] | 94% |  |
| CCC(=O)OC(C(=N)NC(CC(C)C)C1Cc2cccc(O)c2C(=O)O1)C(O)C(N)CC(=O)O (stereo not shown) [Vb-2-1] | 66% |  |
| CC(C)CC(NC(=N)C(OC(=O)CCC1CCCC1)C(O)C(N)CC(=O)O)C1Cc2cccc(O)c2C(=O)O1 (stereo not shown) [Vb-2-2] | 56% |  |
| C/C=C/C(=O)OC(C(=N)NC(CC(C)C)C1Cc2cccc(O)c2C(=O)O1)C(O)C(N)CC(=O)O (stereo not shown) [Vb-2-3] | 66% |  |
| CC(=O)Oc1cccc2c1C(=O)OC(C(CC(C)C)NC(=N)C(OC(=O)C(C)C)C(O)C(N)CC(=O)O)C2 (stereo not shown) [Vb-3-1] | 56% |  |
| CC(C)CC(NC(=N)C(O)C(O)C(N)CC(=O)O)C1Cc2cccc(OC(=O)C(C)C)c2C(=O)O1 (stereo not shown) [Vb-4-1] | 78% |  |
| CCCCCCCCCCCCCCCCCC(=O)Oc1cccc2c1C(=O)OC(C(CC(C)C)NC(=N)C(O)C(O)C(N)CC(=O)O)C2 (stereo not shown) [Vb-4-2] | 56% |  |
| COC(C)CC(=O)Oc1cccc2c1C(=O)OC(C(CC(C)C)NC(=N)C(O)C(O)C(N)CC(=O)O)C2 (stereo not shown) [Vb-4-3] | 66% |  |
| CCOc1cccc2c1C(=O)OC(C(CC(C)C)NC(=N)C(O)C(O)C(N)CC(=O)O)C2 (stereo not shown) [Vb-5-1] | 94% |  |
| CCCCN=C(NC(CC(C)C)C1Cc2cccc(OCC)c2C(=O)O1)C(O)C(O)C(N)CC(=O)O (stereo not shown) [Vb-5-2] | 89% |  |
| CCOc1cccc2c1C(=O)OC(C(CC(C)C)NC(=N)C(OC(C)=O)C(O)C(N)CC(=O)O)C2 (stereo not shown) [Vb-6-1] | 66% |  |
| CCOc1cccc2c1C(=O)OC(C(CC(C)C)NC(=N)C(OC(=O)C(C)C)C(O)C(N)CC(=O)O)C2 (stereo not shown) [Vb-6-2] | 66% |  |
| CCOc1cccc2c1C(=O)OC(C(CC(C)C)NC(=N)C(OC(=O)CC)C(O)C(N)CC(=O)O)C2 (stereo not shown) [Vb-6-3] | 66% |  |
| CCCCOC(C(=N)NC(CC(C)C)C1Cc2cccc(OC)c2C(=O)O1)C(O)C(N)CC(=O)O (stereo not shown) [Vb-7-1] | 72% |  |
| CCCCOc1cccc2c1C(=O)OC(C(CC(C)C)NC(=N)C(OCCCC)C(O)C(N)CC(=O)O)C2 (stereo not shown) [Vb-7-2] | 66% |  |
| CCCCOC(C(=N)NC(CC(C)C)C1Cc2cccc(OCc3ccccc3)c2C(=O)O1)C(O)C(N)CC(=O)O (stereo not shown) [Vb-7-3] | 56% |  |

| Structure (SMILES) | inhibition in vivo at 50 mg/kg (ulcer; 50 mg/kg i.p.) | also measured |
| --- | --- | --- |
| COC(C(=N)NC(CC(C)C)C1Cc2cccc(O)c2C(=O)O1)C(O)C(N)CC(=O)O (stereo not shown) [Vb-8-1] | 78% |  |
| CCOC(C(=N)NC(CC(C)C)C1Cc2cccc(O)c2C(=O)O1)C(O)C(N)CC(=O)O (stereo not shown) [Vb-8-3] | 78% |  |
| COC(C(=N)NC(CC(C)C)C1Cc2cccc(OC(C)=O)c2C(=O)O1)C(O)C(N)CC(=O)O (stereo not shown) [Vb-9-1] | 66% |  |
| CCCC(=O)Oc1cccc2c1C(=O)OC(C(CC(C)C)NC(=N)C(OCC)C(O)C(N)CC(=O)O)C2 (stereo not shown) [Vb-9-2] | 66% |  |
| CCOC(C(=N)NC(CC(C)C)C1Cc2cccc(OCCC(C)OC)c2C(=O)O1)C(O)C(N)CC(=O)O (stereo not shown) [Vb-9-3] | 66% |  |
| CCNC(CC(=O)O)C(O)C(O)C(=N)NC(CC(C)C)C1Cc2cccc(O)c2C(=O)O1 (stereo not shown) [Vb-10-1] | 94% |  |
| CCCCNC(CC(=O)O)C(O)C(O)C(=N)NC(CC(C)C)C1Cc2cccc(O)c2C(=O)O1 (stereo not shown) [Vb-10-2] | 100% |  |
| CCCCN=C(NC(CC(C)C)C1Cc2cccc(O)c2C(=O)O1)C(O)C(O)C(CC(=O)O)NCCCC (stereo not shown) [Vb-10-3] | 89% |  |
| CCNC(CC(=O)O)C(O)C(OC(C)=O)C(=N)NC(CC(C)C)C1Cc2cccc(O)c2C(=O)O1 (stereo not shown) [Vb-11-1] | 78% |  |
| CC(=O)OC(C(=N)NC(CC(C)C)C1Cc2cccc(O)c2C(=O)O1)C(O)C(CC(=O)O)NCCC(C)C (stereo not shown) [Vb-11-2] | 66% |  |
| CCCCNC(CC(=O)O)C(O)C(OC(=O)CCC)C(=N)NC(CC(C)C)C1Cc2cccc(O)c2C(=O)O1 (stereo not shown) [Vb-11-3] | 72% |  |
| CCNC(CC(=O)O)C(O)C(OC(=O)CC)C(=N)NC(CC(C)C)C1Cc2cccc(OC(=O)C(C)C)c2C(=O)O1 (stereo not shown) [Vb-12-1] | 56% |  |
| CC(=O)Oc1cccc2c1C(=O)OC(C(CC(C)C)NC(=N)C(OC(C)=O)C(O)C(CC(=O)O)NCC1CCCO1)C2 (stereo not shown) [Vb-12-2] | 56% |  |
| CC(=O)Oc1cccc2c1C(=O)OC(C(CC(C)C)NC(=N)C(OC(C)=O)C(O)C(CC(=O)O)NCc1ccc(C)cc1)C2 (stereo not shown) [Vb-12-3] | 44% |  |
| CCNC(CC(=O)O)C(O)C(O)C(=N)NC(CC(C)C)C1Cc2cccc(OC(C)=O)c2C(=O)O1 (stereo not shown) [Vb-13-1] | 78% |  |
| CCNC(CC(=O)O)C(O)C(O)C(=N)NC(CC(C)C)C1Cc2cccc(OC)c2C(=O)O1 (stereo not shown) [Vb-14-1] | 89% |  |
| CNC(CC(=O)O)C(O)C(O)C(=N)NC(CC(C)C)C1Cc2cccc(O)c2C(=O)O1 (stereo not shown) [Vb-19-1] | 100% |  |
| CCOc1cccc2c1C(=O)OC(C(CC(C)C)NC(=N)C(O)C(O)C(CC(=O)O)NC)C2 (stereo not shown) [Vb-23-1] | 89% |  |
| CNC(CC(=O)O)C(O)C(OC)C(=N)NC(CC(C)C)C1Cc2cccc(OC(C)=O)c2C(=O)O1 (stereo not shown) [Vb-27-1] | 66% |  |
| COC(C(=N)NC(CC(C)C)C1Cc2cccc(OC(C)=O)c2C(=O)O1)C(O)C(CC(=O)O)NC(C)C (stereo not shown) [Vb-27-2] | 66% |  |
